The test has as its target T1, human recombinant mGluR5 receptor (Homo sapiens, UniProt P41594).
T1 construct: expressed in transfected cells; expression induced with doxycycline
In words: mGluR5 in vitro functional assay (aequorin cell line, inhibition of glutamate EC80 response). It counts as cell-based. The essentials:
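Doxycycline-induced (600 ng/mL, 18 h) aequorin cells loaded with coelenterazine h ≥4 h at room temperature; compound preincubated 3 min before glutamate at EC80. Luminescence recorded, normalized to digitonin or 20 mM ATP wells; % inhibition of EC80 response fitted by sigmoidal nonlinear regression.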

Setting [1] is: Table 1, aequorin cell line expressing human mGluR5, reference agonist glutamate at EC80, obtained in duplicate, read-out: IC50.
Setting [2] is: Table 2, aequorin cell line expressing human mGluR5, reference agonist glutamate at EC80, obtained in duplicate, read-out: IC50.

Where two headings read alike, the source gives them in different places.

T1 sequence (P41594 21-1212): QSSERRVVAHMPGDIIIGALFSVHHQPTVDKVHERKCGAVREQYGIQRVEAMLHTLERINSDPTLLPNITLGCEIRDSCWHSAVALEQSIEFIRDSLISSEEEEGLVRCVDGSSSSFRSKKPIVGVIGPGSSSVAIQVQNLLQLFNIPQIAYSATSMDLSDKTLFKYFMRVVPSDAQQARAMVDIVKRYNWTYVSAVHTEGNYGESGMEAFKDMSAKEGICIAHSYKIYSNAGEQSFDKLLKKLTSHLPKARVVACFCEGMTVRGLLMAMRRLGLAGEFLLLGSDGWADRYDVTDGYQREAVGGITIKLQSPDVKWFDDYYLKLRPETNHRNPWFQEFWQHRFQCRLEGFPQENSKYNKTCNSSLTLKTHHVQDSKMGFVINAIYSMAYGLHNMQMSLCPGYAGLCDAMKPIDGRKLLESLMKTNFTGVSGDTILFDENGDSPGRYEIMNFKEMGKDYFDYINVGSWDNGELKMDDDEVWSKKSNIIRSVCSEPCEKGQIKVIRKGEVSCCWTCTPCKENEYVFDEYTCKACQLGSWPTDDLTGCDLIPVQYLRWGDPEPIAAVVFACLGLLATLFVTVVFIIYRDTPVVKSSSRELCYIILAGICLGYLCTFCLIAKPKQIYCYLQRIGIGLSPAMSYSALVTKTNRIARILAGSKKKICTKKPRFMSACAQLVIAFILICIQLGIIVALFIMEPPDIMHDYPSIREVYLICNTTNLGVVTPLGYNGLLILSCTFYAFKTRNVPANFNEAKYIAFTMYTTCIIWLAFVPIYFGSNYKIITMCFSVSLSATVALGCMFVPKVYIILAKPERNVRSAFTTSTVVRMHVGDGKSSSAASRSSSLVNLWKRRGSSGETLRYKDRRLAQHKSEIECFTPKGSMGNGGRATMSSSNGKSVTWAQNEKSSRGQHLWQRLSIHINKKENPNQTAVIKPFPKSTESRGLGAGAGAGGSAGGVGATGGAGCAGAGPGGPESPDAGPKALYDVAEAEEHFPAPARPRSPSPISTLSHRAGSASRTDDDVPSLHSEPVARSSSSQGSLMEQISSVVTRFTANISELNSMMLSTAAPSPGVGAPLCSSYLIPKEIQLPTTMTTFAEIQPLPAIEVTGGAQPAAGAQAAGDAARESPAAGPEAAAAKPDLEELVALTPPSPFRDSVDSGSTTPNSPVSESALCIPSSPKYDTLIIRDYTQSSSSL

Broadly, the IC50 is the concentration that inhibits the measured activity by half. With `COc1ccc(-c2nc3c(o2)CCN(c2cnccn2)C3)cc1` [Compound 42, 2-(4-Methoxyphenyl)-5-(pyrazin-2-yl)-4,5,6,7-tetrahydrooxazolo[4,5-c]pyridine], the IC50 under setting [1] was > 10000 nM.

Turning to `Cc1nc(-c2nc3c(o2)CCN(c2ccccc2Cl)C3)cs1` [Compound 172, 5-(2-Chlorophenyl)-2-(2-methylthiazol-4-yl)-4,5,6,7-tetrahydrooxazolo[4,5-c]pyridine], the IC50 under setting [2] is < 1000 nM.

Turning to `N#Cc1cccc(N2CCc3nc(-c4cccnc4)oc3C2)c1` [Compound 77, 3-(2-(Pyridin-3-yl)-6,7-dihydrooxazolo[5,4-c]pyridin-5(4H)-yl)benzonitrile], under setting [1], the IC50 was > 10000 nM.

With `Cc1cccc(-c2nc3c(o2)CN(c2ncccc2C#N)CC3)c1` [Compound 59, 2-(2-m-Tolyl-6,7-dihydrooxazolo[5,4-c]pyridin-5(4H)-yl)nicotinonitrile], the IC50 under setting [1] is < 1000 nM.

As for `Fc1ccc(C2CCc3oc(-c4ccccn4)nc3C2)c(Cl)c1` (racemic) [Compound 223, 5-(2-Chloro-4-fluorophenyl)-2-(pyridin-2-yl)-4,5,6,7-tetrahydrobenzo[d]oxazole], the IC50 under setting [2] is < 1000 nM.

As to `N#Cc1ccc(N2CCc3oc(-c4ccccn4)nc3C2)cc1F` [Compound 36, 2-Fluoro-4-(2-(pyridin-2-yl)-6,7-dihydrooxazolo[4,5-c]pyridin-5(4H)-yl)benzonitrile], the IC50 is > 10000 nM.

Turning to `COc1c(F)cc(N2CCCc3oc(-c4ccccn4)nc3C2)cc1C#N` [Compound 217, 3-Fluoro-2-methoxy-5-(2-(pyridin-2-yl)-7,8-dihydro-4H-oxazolo[4,5-c]azepin-5(6H)-yl)benzonitrile], the 50% inhibitory concentration (IC50) under setting [2] is < 1000 nM.

Turning to `COc1ccc(F)cc1N1CCc2oc(-c3ccccn3)nc2C1` [Compound 179, 5-(5-Fluoro-2-methoxyphenyl)-2-(pyridin-2-yl)-4,5,6,7-tetrahydrooxazolo[4,5-c]pyridine], under setting [2], the concentration for half-maximal inhibition (IC50) is < 1000 nM.

As for `N#Cc1cc(F)cc(N2CCc3oc(-c4cncnc4)nc3C2)c1` [Compound 160, 3-Fluoro-5-(2-(pyrimidin-5-yl)-6,7-dihydrooxazolo[4,5-c]pyridin-5(4H)-yl)benzonitrile], the IC50 under setting [2] was > 10000 nM.

As for `N#Cc1cc(F)cc(N2CCc3nc(-c4ccccn4)sc3C2)c1` [Compound 105, 3-Fluoro-5-(2-(pyridin-2-yl)-6,7-dihydro-thiazolo[5,4-c]pyridin-5(4H)-yl)benzonitrile], the IC50 under setting [1] is < 10000 nM.

As to `Clc1ccc(N2CCc3oc(-c4ccccn4)nc3C2)cc1` [Compound 157, 5-(4-Chlorophenyl)-2-(pyridin-2-yl)-4,5,6,7-tetrahydrooxazolo[4,5-c]pyridine], under setting [2], the IC50 was < 1000 nM.

Turning to `N#Cc1cc(N2CCCc3nc(-c4ccccn4)oc3C2)cc(C(F)(F)F)c1` [Compound 94, 3-(2-(Pyridin-2-yl)-7,8-dihydro-4H-oxazolo[5,4-c]azepin-5(6H)-yl)-5-(trifluoromethyl)benzonitrile], the IC50 under setting [1] was < 1000 nM.

As for `N#Cc1cc(F)cc(N2CCCc3oc(-c4ccncn4)nc3C2)c1` [Compound 138, 3-fluoro-5-(2-(pyrimidin-4-yl)-7,8-dihydro-4H-oxazolo[4,5-c]azepin-5(6H)-yl)benzonitrile], the half-inhibitory concentration (IC50) under setting [2] was < 1000 nM.

As for `N#Cc1cc(O)cc(N2CCCc3oc(-c4ccccn4)nc3C2)c1` [Compound 214, 3-Hydroxy-5-(2-(pyridin-2-yl)-7,8-dihydro-4H-oxazolo[4,5-c]azepin-5(6H)-yl)benzonitrile], the IC50 under setting [2] is < 1000 nM.

With `COc1cc(C#N)cc(N2CCCc3oc(-c4ccccn4)nc3C2)c1` [Compound 213, 3-Methoxy-5-(2-(pyridin-2-yl)-7,8-dihydro-4H-oxazolo[4,5-c]azepin-5(6H)-yl)benzonitrile], the IC50 under setting [2] is < 1000 nM.

With `c1ccc(-c2nc3c(o2)CCN(c2nccs2)C3)nc1` [Compound 55, 2-(Pyridin-2-yl)-5-(thiazol-2-yl)-4,5,6,7-tetrahydrooxazolo[4,5-c]pyridine], the IC50 under setting [1] was < 1000 nM.

With `Fc1cccc(N2CCCc3oc(-c4ccncn4)nc3C2)c1` [Compound 136, 5-(3-fluorophenyl)-2-(pyrimidin-4-yl)-5,6,7,8-tetrahydro-4H-oxazolo[4,5-c]azepine], the IC50 under setting [2] was < 1000 nM.

Consider `Clc1cccc(-c2nc3c(o2)CCN(c2ccccn2)C3)c1` [Compound 40, 2-(3-Chlorophenyl)-5-(pyridin-2-yl)-4,5,6,7-tetrahydrooxazolo[4,5-c]pyridine], for which the IC50 under setting [1] is < 1000 nM.

As for `Clc1cccc(N2CCn3nc(-c4ccccn4)nc3C2)c1` [Compound 113, 7-(3-Chlorophenyl)-2-(pyridin-2-yl)-5,6,7,8-tetrahydro-[1,2,4]triazolo[1,5-a]pyrazine], the IC50 under setting [1] is < 1000 nM.

For the compound `Fc1ccc(N2CCc3oc(-c4ccccn4)nc3C2)c(Cl)c1` [Compound 171, 5-(2-Chloro-4-fluorophenyl)-2-(pyridin-2-yl)-4,5,6,7-tetrahydrooxazolo[4,5-c]pyridine], the IC50 under setting [2] is < 1000 nM.

For `N#Cc1cccc(N2CCc3nc(-c4ccncc4)oc3C2)c1` [Compound 75, 3-(2-(Pyridin-4-yl)-6,7-dihydrooxazolo[5,4-c]pyridin-5(4H)-yl)benzonitrile], the IC50 under setting [1] is < 10000 nM.

As for `c1ccc(-c2nc3c(o2)CCN(c2ccccc2N2CCOCC2)C3)nc1` [Compound 193, 5-(2-Morpholinophenyl)-2-(pyridin-2-yl)-4,5,6,7-tetrahydrooxazolo[4,5-c]pyridine], the IC50 under setting [2] is < 1000 nM.

As to `N#Cc1cc(F)cc(C2CCc3oc(-c4ccccn4)nc3C2)c1` (stereo not shown) [Compound 222, 3-Fluoro-5-(2-(pyridin-2-yl)-4,5,6,7-tetrahydrobenzo[d]oxazol-5-yl)benzonitrile], under setting [2], the IC50 was < 1000 nM.

`N#Cc1cccnc1N1CCc2oc(-c3ccccc3)nc2C1` [Compound 37, 2-(2-Phenyl-6,7-dihydrooxazolo[4,5-c]pyridin-5(4H)-yl)nicotinonitrile]: under setting [1], the IC50 is < 10000 nM.

Take `c1ccc(-c2nc3c(o2)CCN(c2cccc4ccccc24)C3)nc1` [Compound 181, 5-(Naphthalen-1-yl)-2-(pyridin-2-yl)-4,5,6,7-tetrahydrooxazolo[4,5-c]pyridine]: the IC50 under setting [2] was < 1000 nM.

`Fc1cncc(N2CCCc3oc(-c4ccccn4)nc3C2)c1` [Compound 104, 5-(5-Fluoropyridin-3-yl)-2-(pyridin-2-yl)-5,6,7,8-tetrahydro-4H-oxazolo[4,5-c]azepine]: the IC50 under setting [1] is < 1000 nM.

`N#Cc1nccnc1N1CCc2oc(-c3ccccc3)nc2C1` [Compound 52, 3-(2-Phenyl-6,7-dihydrooxazolo[4,5-c]pyridin-5(4H)-yl)pyrazine-2-carbonitrile]: the IC50 under setting [1] is < 10000 nM.

Turning to `Fc1cc(F)c(F)c(N2CCc3oc(-c4ccccn4)nc3C2)c1` [Compound 188, 2-(Pyridin-2-yl)-5-(2,3,5-trifluorophenyl)-4,5,6,7-tetrahydrooxazolo[4,5-c]pyridine], under setting [2], the IC50 was < 1000 nM.

`N#Cc1cc(N2CCCc3oc(-c4ccccn4)nc3C2)cc(F)c1F` [Compound 216, 2,3-Difluoro-5-(2-(pyridin-2-yl)-7,8-dihydro-4H-oxazolo[4,5-c]azepin-5(6H)-yl)benzonitrile]: the IC50 under setting [2] was < 1000 nM.

As for `Fc1ccc(N2CCCc3oc(-c4ccccn4)nc3C2)cc1Cl` [Compound 144, 5-(3-chloro-4-fluorophenyl)-2-(pyridin-2-yl)-5,6,7,8-tetrahydro-4H-oxazolo[4,5-c]azepine], the IC50 under setting [2] was < 1000 nM.

Turning to `c1ccc(-c2nc3c(o2)CN(c2cccnc2)CC3)nc1` [Compound 5, 2-(Pyridin-2-yl)-5-(pyridin-3-yl)-4,5,6,7-tetrahydrooxazolo[5,4-c]pyridine], under setting [1], the IC50 is > 10000 nM.

Regarding `N#Cc1cc(N2CCc3oc(-c4ccccn4)nc3C2)ccc1F` [Compound 57, 2-Fluoro-5-(2-(pyridin-2-yl)-6,7-dihydrooxazolo[4,5-c]pyridin-5(4H)-yl)benzonitrile], the IC50 under setting [1] is < 10000 nM.

`Clc1ccccc1[C@@H]1CCc2oc(-c3ccccn3)nc2C1` (single isomer, unassigned) [Compound 220]: the IC50 under setting [2] is < 1000 nM.

Turning to `FC(F)(F)c1ccc(-c2nc3c(o2)CCN(c2cnccn2)C3)cc1` [Compound 45, 5-(Pyrazin-2-yl)-2-(4-(trifluoromethyl)phenyl)-4,5,6,7-tetrahydrooxazolo[4,5-c]pyridine], the IC50 under setting [1] is > 10000 nM.

Take `N#Cc1cccnc1N1CCc2nc(-c3ccccn3)oc2C1` [Compound 3, 2-(2-(Pyridin-2-yl)-6,7-dihydrooxazolo[5,4-c]pyridin-5(4H)-yl)nicotinonitrile]: the IC50 under setting [1] is < 1000 nM.

On to `Clc1cccc(-c2nc3c(o2)CCN(Cc2ccccn2)C3)c1` [Compound 50, 2-(3-Chlorophenyl)-5-(pyridin-2-ylmethyl)-4,5,6,7-tetrahydrooxazolo[4,5-c]pyridine], for which the IC50 under setting [1] was < 10000 nM.

As for `COc1cccc(-c2nc3c(o2)CN(c2ccccn2)CC3)c1` [Compound 71, 2-(3-Methoxyphenyl)-5-(pyridin-2-yl)-4,5,6,7-tetrahydrooxazolo[5,4-c]pyridine], the IC50 under setting [1] is < 10000 nM.

For `N#Cc1cccc(N2CCCc3nc(-c4ccccn4)oc3C2)c1` [Compound 93, 3-(2-(Pyridin-2-yl)-7,8-dihydro-4H-oxazolo[5,4-c]azepin-5(6H)-yl)benzonitrile], the IC50 under setting [1] was < 1000 nM.

For the compound `Clc1cccc(N2CCc3oc(-c4ccccn4)nc3C2)c1` [Compound 115, 5-(3-chlorophenyl)-2-(pyridin-2-yl)-4,5,6,7-tetrahydrooxazolo[4,5-c]pyridine], the IC50 under setting [2] was < 1000 nM.

Consider `N#Cc1cccc(C(=O)N2CCc3nc(-c4ccccn4)oc3C2)c1` [Compound 12, 3-(2-(Pyridin-2-yl)-4,5,6,7-tetrahydrooxazolo[5,4-c]pyridine-5-carbonyl)benzonitrile], for which the IC50 under setting [1] is < 10000 nM.
